Legend:
[1] = biological target: T1, GST-LXRβ ligand-binding domain (Homo sapiens, UniProt P55055); assay: TR-FRETβ activity assay (NCoA3 coactivator peptide recruitment); type: biochemical; settings: 1 μM 24(S)-25-epoxycholesterol prestimulation
T1 construct: amino acids 156-461; NP009052; made in house; host or cells: E. coli
T1 sequence (P55055 156-460 limits assumed): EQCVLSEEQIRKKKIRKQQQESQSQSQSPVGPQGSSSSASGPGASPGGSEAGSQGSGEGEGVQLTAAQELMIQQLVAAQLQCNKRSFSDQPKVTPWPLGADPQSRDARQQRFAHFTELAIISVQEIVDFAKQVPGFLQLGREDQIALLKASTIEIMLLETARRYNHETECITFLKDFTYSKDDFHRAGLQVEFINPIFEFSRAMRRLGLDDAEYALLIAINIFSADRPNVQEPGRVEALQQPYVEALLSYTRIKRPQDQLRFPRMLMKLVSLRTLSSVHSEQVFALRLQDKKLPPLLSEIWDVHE
Experimental: Recombinant GST-LXRβ ligand-binding domain (LBD; amino acids 156-461; NP009052; SEQ ID NO:4) was expressed in E. coli and purified via gluthatione-sepharose affinity chromatography. N-terminally biotinylated NCoA3 coactivator peptide (SEQ ID NO:7) was chemically synthesized (Eurogentec). Assays were done in 384 well format (final assay volume of 25 μL/well) in a Tris/HCl buffer (pH 6.8) containing KCl, bovine serum albumin, Triton-X-100 and 1 μM 24(S)-25-epoxycholesterol as LXR-prestimulating agonist. Assay buffer was provided and test articles (potential LXR inverse agonists) were titrated to yield final assay concentrations of 50 μM, 16.7 μM, 5.6 μM, 1.9 μM, 0.6 μM, 0.2 μM, 0.07 μM, 0.02 μM, 0.007 μM, 0.002 μM with one vehicle control. Finally, a detection mix was added containing anti GST-Tb cryptate (CisBio; 610SAXLB) and Streptavidin-XL665 (CisBio; 610SAXLB) as fluorescent donor and acceptor, respectively, as well as the coactivator peptide and LXRβ-LBD protein (SEQ ID NO:4). The reaction was mixed thoroughly, equilibrated for 1 h at 4° C. and vicinity of LXRβ and coactivator peptide was detected by measurement of fluorescence in a VictorX4 multiplate reader (PerkinElmer Life Science) using 340 nm as excitation and 615 and 665 nm as emission wavelengths. Assays were performed in triplicates.
240 mM KCl, 1 μg/μL BSA, 0.002% Triton-X-100, […] anti GST-Tb cryptate, 2.5 ng/μL Streptavidin-XL665, coactivator peptide (400 nM), LXRβ protein (530 μg/mL, i.e. 76 nM).

LXRβ = biological target: T2, LXRβ (Homo sapiens, UniProt P55055); assay: LXR Gal4 reporter transient transfection assay (mammalian two-hybrid, HEK293), LXRβ; type: cell-based; parameters: LXRβ (amino acids 156-461); expressed in transfected cells; host or cells: HEK293; settings: full length (FL) LXRβ, HEK293; read-out: FL-M2H Gal4β
T2 sequence (P55055 1-460): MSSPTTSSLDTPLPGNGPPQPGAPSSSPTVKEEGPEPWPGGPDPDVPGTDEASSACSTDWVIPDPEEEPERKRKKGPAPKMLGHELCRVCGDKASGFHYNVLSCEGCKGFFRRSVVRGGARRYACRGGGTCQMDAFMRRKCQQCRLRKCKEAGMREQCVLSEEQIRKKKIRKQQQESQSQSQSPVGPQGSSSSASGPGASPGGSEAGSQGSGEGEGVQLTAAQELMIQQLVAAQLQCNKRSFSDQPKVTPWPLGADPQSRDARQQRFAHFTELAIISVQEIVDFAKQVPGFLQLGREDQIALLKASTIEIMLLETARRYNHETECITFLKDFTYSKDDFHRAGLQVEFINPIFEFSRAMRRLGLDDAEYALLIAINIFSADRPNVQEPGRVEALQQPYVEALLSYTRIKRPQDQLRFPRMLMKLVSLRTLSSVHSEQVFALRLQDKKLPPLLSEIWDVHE
Experimental: LXRα and LXRβ activity status was determined via detection of interaction with coactivator and corepressor proteins in mammalian two-hybrid experiments (M2H). For this, via transient transfection the full length (FL) proteins of LXRα (amino acids 1-447; NP005684; SEQ ID NO:1) or LXRβ-(amino acids 1-461; NP009052; SEQ ID NO:2) or the ligand-binding domains (LBD) of LXRα (amino acids 155-447 SEQ ID NO:3) or LXRβ (amino acids 156-461; SEQ ID NO:4) were expressed from pCMV-AD (Stratagene) as fusions to the transcriptional activation domain of NFkB. As cofactors, domains of either the steroid receptor coactivator 1 (SRC1; amino acids 552-887; SEQ ID NO:5) or of the corepressor NCoR (amino acids 1906-2312; NP006302; SEQ ID NO:6) were expressed as fusions to the DNA binding domain of the yeast transcription factor GAL4 (from pCMV-BD; Stratagene). Interaction was monitored via activation of a coexpressed Firefly Luciferase Reporter gene under control of a promoter containing repetitive GAL4 response elements (vector pFRLuc; Stratagene). Transfection efficiency was controlled via cotransfection of constitutively active pRL-CMV Renilla reniformis luciferase reporter (Promega). HEK293 cells were grown in minimum essential medium (MEM) with 2 mM L-glutamine and Earle's balanced salt solution supplemented with 8.3% fetal bovine serum, 0.1 mM non-essential amino acids, 1 mM sodium pyruvate, at 37° C. in 5% CO2. 3.5×10^4 cells/well were plated in 96-well cell culture plates in growth medium supplemented with 8.3% fetal bovine serum for 16-20 h to ˜90% confluency. For transfection, medium was taken off and LXR and cofactor expressing plasmids as well as the reporter plasmids are added in 30 μL OPTIMEM/well including polyethylene-imine (PEI) as vehicle. Typical amounts of plasmids transfected/well: pCMV-AD-LXR (5 ng), pCMV-BD-cofactor (5 ng), pFR-Luc (100 ng), pRL-CMV (0.5 ng). Compound stocks were prepared in DMSO, prediluted in MEM to a total volume of 120 μL, and added 4 h after addition of the transfection mixture (final vehicle concentration not exceeding 0.2%). Cells were incubated for additional 16 h, lysed for 10 min in 1×Passive Lysis Buffer (Promega) and Firefly and Renilla luciferase activities were measured sequentially in the same cell extract using buffers containing D-luciferine and coelenterazine, respectively. Measurements of luminescence were done in a BMG-luminometer.
The potencies of Compound 21/3 and its analog, Compound pre-6/3, against LXRα and LXRβ were evaluated in biochemical binding assays, cellular mammalian two-hybrid (M2H) interaction assays evaluating nuclear receptor co-repressor (NCOR) recruitment, and cellular reporter assays evaluating transcriptional activity (Table 5).

SMILES | EC50 [1] | EC50 (LXRβ)
Cc1ccc(S(=O)(=O)n2c(-c3cccc(N4CC(C(=O)O)C4)c3)c(-c3ccoc3C#N)c3cc(F)ccc32)cc1 [3/26] | 1000 to 10000 nM | < 100 nM
Cc1ccc(S(=O)(=O)n2c(-c3cccc(N4CC(C(=O)O)C4)c3)c(-c3ccsc3CCO)c3cc(F)ccc32)cc1 [3/27] | 1000 to 10000 nM | 100 to 1000 nM
Cc1ccc(S(=O)(=O)n2c(-c3cccc(N4CC(C(=O)O)C4)c3)c(-c3ccsc3C(=O)N(C)C)c3cc(F)ccc32)cc1 [3/28] | > 10000 nM | 1000 to 10000 nM
Cc1ccc(S(=O)(=O)n2c(-c3cccc(N4CC(C(=O)O)C4)c3)c(-c3ccsc3C(F)(F)F)c3cc(F)ccc32)cc1 [3/30] | 100 to 1000 nM | < 100 nM
Cc1ccc(S(=O)(=O)n2c(-c3cccc(N4CC(C(=O)O)C4)c3)c(-c3ccccc3C3COC3)c3cc(F)ccc32)cc1 [3/31] | 100 to 1000 nM | 100 to 1000 nM
Cc1ccc(S(=O)(=O)n2c(-c3cccc(N4CC(C(=O)O)C4)c3)c(-c3ccsc3C#N)c3cc(F)ccc32)cc1 [3/32] | 100 to 1000 nM | < 100 nM
N#Cc1sccc1-c1c(-c2cccc(N3CC(C(=O)O)C3)c2)n(S(=O)(=O)c2ccc(C(F)(F)F)cc2)c2ccc(F)cc12 [3/34] | 100 to 1000 nM | < 100 nM
N#Cc1sccc1-c1c(-c2cccc(N3CC(C(=O)O)C3)c2)n(S(=O)(=O)c2ccc(C(F)F)cc2)c2ccc(F)cc12 [3/35] | 100 to 1000 nM | < 100 nM
CC1CCN(S(=O)(=O)n2c(-c3cccc(N4CC(C(=O)O)C4)c3)c(-c3ccsc3C#N)c3cc(F)ccc32)CC1 [3/36] | 1000 to 10000 nM | 100 to 1000 nM
Cc1ccc(S(=O)(=O)n2c(-c3cccc(N4CC(C)(C(=O)O)C4)c3)c(-c3ccsc3C#N)c3cc(F)ccc32)cc1 [3/37] | 100 to 1000 nM | < 100 nM
Cc1ccc(S(=O)(=O)n2c(-c3cccc(N4CCC(C(=O)O)CC4)c3)c(-c3ccsc3C#N)c3cc(F)ccc32)cc1 [3/38] | 100 to 1000 nM | < 100 nM
Cc1ccc(S(=O)(=O)n2c(-c3cccc(C4CC(C(=O)O)C4)c3)c(-c3ccsc3C#N)c3cc(F)ccc32)cc1 (centres unmarked) [3/39] | 100 to 1000 nM | < 100 nM
Cc1ccc(S(=O)(=O)n2c(-c3cc(N4CC(C(=O)O)C4)ccc3Cl)c(-c3ccsc3C#N)c3cc(F)ccc32)cc1 [3/40] | 1000 to 10000 nM | < 100 nM
Cc1ccc(S(=O)(=O)n2c(-c3cc(N4CC(C(=O)O)C4)ccc3F)c(-c3ccsc3C#N)c3cc(F)ccc32)cc1 [3/41] | 1000 to 10000 nM | < 100 nM
Cc1ccc(S(=O)(=O)n2c(-c3cccc(N4CC(C(=O)O)C4)c3)c(-c3ccsc3C#N)c3cc(C#N)ccc32)cc1 [3/45] | 1000 to 10000 nM | 100 to 1000 nM
Cc1ccc(S(=O)(=O)n2c(-c3cccc(-c4ccc(C(=O)O)nc4)c3)c(-c3ccsc3C#N)c3cc(F)ccc32)cc1 [3/47] | 100 to 1000 nM | < 100 nM

SMILES | EC50 [1] | EC50 (LXRβ)
Cc1ccc(S(=O)(=O)n2c(-c3cccc(-c4ccc(C(=O)O)c(Cl)c4)c3)c(-c3ccsc3C#N)c3cc(F)ccc32)cc1 [3/49] | 100 to 1000 nM | < 100 nM
Cc1ccc(S(=O)(=O)n2c(-c3cccc(N4CCC(C)(C(=O)O)CC4)c3)c(-c3ccsc3C#N)c3cc(F)ccc32)cc1 [3/50] | 100 to 1000 nM | < 100 nM
Cc1ccc(S(=O)(=O)n2c(-c3cccc(N4CC(C(=O)NC(C)(C)C(=O)O)C4)c3)c(-c3ccsc3C#N)c3cc(F)ccc32)cc1 [3/52] | 100 to 1000 nM | 100 to 1000 nM
COc1cc(F)cc2c(-c3ccsc3C#N)c(-c3cccc(-c4ccc(C(=O)O)cc4)c3)n(S(=O)(=O)c3ccc(C)cc3)c12 [3/53] | < 100 nM | < 100 nM
Cc1ccc(S(=O)(=O)n2c(-c3cccc(-c4ccc(C(=O)O)cc4)c3)c(-c3ccsc3C#N)c3cc(F)cc(O)c32)cc1 [3/54] | 100 to 1000 nM | < 100 nM
Cc1ccc(S(=O)(=O)n2c(-c3cccc(-c4ccc(C(C)(O)C(=O)O)cc4)c3)c(-c3ccsc3C#N)c3cc(F)ccc32)cc1 (centres unmarked) [3/55] | 100 to 1000 nM | < 100 nM
O=C(O)c1ccc(-c2cccc(-c3c(-c4ccccc4C4COC4)c4cc(F)ccc4n3S(=O)(=O)c3ccc(Cl)cc3)c2)c(Cl)c1 [3/56] | < 100 nM | < 100 nM
N#Cc1sccc1-c1c(-c2cccc(-c3ccc(C(=O)O)cc3Cl)c2)n(S(=O)(=O)c2ccc(Cl)cc2)c2ccc(F)cc12 [3/57] | 100 to 1000 nM | < 100 nM
Cc1ccc(S(=O)(=O)n2c(-c3cccc(N4[C@@H]5CC[C@H]4C[C@@H](C(=O)O)C5)c3)c(-c3ccsc3C#N)c3cc(F)ccc32)cc1 [3/58] | 1000 to 10000 nM | < 100 nM
N#Cc1sccc1-c1c(-c2cccc(N3CCC(C(=O)O)CC3)c2)n(S(=O)(=O)c2ccc(C(F)F)cc2)c2ccc(F)cc12 [3/60] | 100 to 1000 nM | < 100 nM
O=C(O)c1ccc(-c2cccc(-c3c(-c4ccccc4C4(F)CNC4)c4cc(F)ccc4n3S(=O)(=O)c3ccc(C(F)F)cc3)c2)c(Cl)c1 [3/61] | 100 to 1000 nM | 100 to 1000 nM
CN1CC(F)(c2ccccc2-c2c(-c3cccc(-c4ccc(C(=O)O)cc4Cl)c3)n(S(=O)(=O)c3ccc(C(F)F)cc3)c3ccc(F)cc23)C1 [3/62] | 100 to 1000 nM | < 100 nM
O=C(O)c1ccc(-c2cccc(-c3c(-c4ccsc4C4COC4)c4cc(F)ccc4n3S(=O)(=O)c3ccc(C(F)F)cc3)c2)c(Cl)c1 [3/63] | < 100 nM | < 100 nM
Cc1ccc(S(=O)(=O)n2c(-c3cccc(C4CC5(CC(C(=O)O)C5)C4)c3)c(-c3ccsc3C#N)c3cc(F)ccc32)cc1 (centres unmarked) [3/65] | 100 to 1000 nM | < 100 nM
CC1(C)CCN(S(=O)(=O)n2c(-c3cccc(-c4ccc(C(=O)O)cc4)c3)c(-c3ccsc3C#N)c3ccccc32)CC1 [3/66] | 1000 to 10000 nM | 100 to 1000 nM
